Experimental data taken from paper PMC4492750, “The discovery of a selective and potent A2a agonist with extended lung retention” (Pharmacology Research & Perspectives, 2015).
Where “and” joins values, the source holds several entries; their conditions need not be identical. Identical values can stand only once. Like-named read-outs stand apart in the source and are kept apart here.

What was measured:
human A2b receptors = target: T1, human A2b receptors (Homo sapiens, UniProt P29275); assay: Human A2b receptor pharmacology: cAMP Alphascreen in CHO-K1 cells; format: cell-based; details: average (SD)
T1 construct: expressed in transfected cells; host or cells: CHO-K1
T1 sequence (P29275 1-332): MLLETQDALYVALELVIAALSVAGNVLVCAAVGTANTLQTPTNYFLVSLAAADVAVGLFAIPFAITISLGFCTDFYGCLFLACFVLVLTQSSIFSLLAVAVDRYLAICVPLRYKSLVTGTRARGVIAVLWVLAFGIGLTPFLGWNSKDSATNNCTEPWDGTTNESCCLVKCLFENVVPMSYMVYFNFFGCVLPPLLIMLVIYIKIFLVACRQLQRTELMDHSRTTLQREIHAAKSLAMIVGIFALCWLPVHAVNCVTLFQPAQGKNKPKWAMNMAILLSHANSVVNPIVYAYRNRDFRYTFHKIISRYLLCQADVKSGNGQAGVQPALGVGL
Procedure: (§1) • Human A2a and A2b receptor pharmacology: Chinese hamster ovary CHO-K1 cells stably expressing human A2a and A2b receptors were used to determine substances agonistic potency and intrinsic activity. […] The signal corresponding to adenosine at 100 μmol/L was used to define 100% intrinsic activity. • Human A3 receptor pharmacology: A3 receptor Gi coupling was measured by GTPγ ^35[S] filter assay at serial dilutions of compound using membranes from Perkin-Elmer. The signal corresponding to the maximal response of NECA at 100 μmol/L was set to 100% intrinsic activity. • Lipopolysaccharide (LPS)-induced TNFα production in primary human peripheral blood mononuclear cells (hTNFα PBMC) and rat mononuclears (rTNFα splenocytes): Human PBMC and rat mononuclear spleen cells were incubated with serial dilutions of compound and stimulated with LPS.
(§2) Chinese hamster ovary CHO-K1 cells stably expressing human A2a and A2b receptors were stored as 1ml aliquots at -150 °C in freezing medium, thawed immediately prior to assay. […] Cells (10000 cells/well) were incubated with test compounds prepared as serial dilutions. Potency (EC50) and efficacy (% of maximal response) were calculated from data fitted to a 4-parameter logistic function. The signal of 10µM NECA represented the maximal cAMP response (i.e. 100% of efficacy) produced by these cells.

[1] = system: blood pressure and heart rate; details: rat, in vivo
From the text: A mixed effect model with fixed effects for time after dose, treatment groups, and number of doses, was set up for the analysis of the blood pressure and HR data (SAS v.9.2). A random intercept was included to allow for individual baseline blood pressures, as well as a random effect on the number of doses. Seven days before initiation of the dosing regimen, 24 rats were anaesthetized (isoflurane) and a small telemetry unit (PA-C10, Data Sciences International, USA) was placed subcutaneously on the left side of the throat with the catheter going into the left carotid artery. […] The compound was given by intratracheal instillation as described above, for 5 consecutive days, and blood pressure and heart rate were continuously recorded, apart from the brief period during compound administration.

[2] = system: mean arterial blood pressure and heart rate; assay: Swivel study: four-step i.v. infusion in conscious rats, PK-PD of MAP and HR; format: in vivo, rat; parameters: Emax,MAP (maximum compound 2-induced decrease in MAP) / Emax,HR (maximum compound 2-induced increase in HR): unit not given here; details: for EC50: rat plasma concentration
Procedure: The relationship between plasma concentrations of compound 2 and mean arterial pressure (MAP) and HR, respectively, were modeled using data generated in the swivel study, including data from start of first infusion up to 2 h after end of last infusion (Dose 1–4, equivalent to 1.9, 11, 67 and 410 μg/kg per min for 15 min at each step). The baseline value, calculated as average of measurements during the 60 min baseline recording period was used as the predose value. Temporal differences between effect measurements and blood sampling for plasma analysis were accounted for by fitting a standard two-compartment PK model to the time-concentration profile for each individual animal, and subsequently using the individual parameter estimates to simulate compound 2 plasma concentrations at the times of effect measurements. Phoenix® WinNonlin® Version 6.2.1 (Certara, L.P., Princetown, NJ) was used for modelling.
A 4-step intravenous infusion protocol was performed during continuous recording of the arterial blood pressure signal and intermittent blood sampling in seven conscious rats the day after surgical implantation of an arterial line in the abdominal aorta via the caudal artery and a venous line in the jugular vein. After a baseline recording of 60 minutes, compound 2 was given in 15-minute constant infusion steps of 1.9, 11, 67 and 410μg/kg/min (0.034-0.2ml/kg/min) followed by a washout period of 120 minutes. One rat was monitored under the same conditions as a time-matched control. Blood samples for analysis of drug exposure were taken at the end of each dose step and intermittently during the washout.

A2a = A2a (Homo sapiens, UniProt P29274); assay: Human A2a receptor pharmacology: cAMP Alphascreen in CHO-K1 cells; format: cell-based; parameters: expressed in transfected cells; host or cells: CHO-K1
Sequence of A2a (P29274 whole entry): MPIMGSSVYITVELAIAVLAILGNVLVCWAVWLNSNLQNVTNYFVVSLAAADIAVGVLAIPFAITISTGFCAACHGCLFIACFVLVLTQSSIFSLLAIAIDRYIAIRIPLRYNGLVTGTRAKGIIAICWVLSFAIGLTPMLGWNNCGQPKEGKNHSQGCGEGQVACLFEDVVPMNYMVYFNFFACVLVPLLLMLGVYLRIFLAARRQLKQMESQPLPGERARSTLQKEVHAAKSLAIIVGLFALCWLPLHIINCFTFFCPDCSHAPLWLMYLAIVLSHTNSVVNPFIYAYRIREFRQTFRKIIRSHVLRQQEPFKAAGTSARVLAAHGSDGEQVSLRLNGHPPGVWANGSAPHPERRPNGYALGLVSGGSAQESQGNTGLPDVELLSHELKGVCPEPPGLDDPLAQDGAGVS
Procedure: as §1, §2

[3] = Lipophilicity (LogD), shake flask; format: physicochemical; details: 1-octanol / phosphate buffer, octanol-water, phosphate buffer pH 7.4
Procedure: as §1
The octanol-water partition coefficient (LogD) was measured using the shake flask method. 600µL of 1-octanol was added to a vial with 6µL of 10mM DMSO-solution of the test compound. 600µL of 10mM sodium phosphate buffer adjusted to pH 7.4 was added and equilibrium was performed by vigorous shaking for ten minutes with an Eppendorf mixer. The phases were separated by centrifugation. The samples were analysed by HPLC with UV-detection at 254nm.

[4] = calculated from PK-PD relationships
[5] = conscious rats, 2 h after end of four-step i.v. infusion

With `CCNC(=O)[C@H]1O[C@@H](n2cnc3c(NC(CC)CC)nc(NCCNC(=O)Nc4cc[n+](C)cc4)nc32)[C@H](O)[C@@H]1O` [Compound 2, (2S,3S,4R,5R)-N-ethyl-5-[6-(1-ethylpropylamino)-2-[2-[(1-methylpyridin-1-ium-4-yl)carbamoylamino]ethylamino]purin-9-yl]-3,4-dihydroxy-tetrahydrofuran-2-carboxamide] the EC50 (human A2b receptors) was 3.6 µM, the “Tachyphylaxis for the HR” value [1] was “did not demonstrate any tachyphylaxis” and the “Concentration for 10% MAP decrease relative to plasma concentration at effective dose (fold lower)” value ([2]; 0.3 nmol/L vs 2-4 nmol/L at 10 μg/kg i.t.) was 10 fold. The “kE0 (first-order rate constant, effect compartment)” value ([2]; PK-PD model of MAP, mean ± SD) was 0.058 ± 0.039 min⁻¹, the EC50 ([2]; Rattus norvegicus, iv, sigmoid Emax model, mean ± SD, read-out: EC50,MAP (plasma concentration that induces half the maximum MAP decrease)) was 0.5 nM and the EC50 ([2]; Rattus norvegicus, iv, simple Emax model on mean data, read-out: EC50,HR) was 0.18 nM. For the same molecule, the “Plasma concentration that produces 10% increase from baseline HR” value [2, 4] was 0.04 nmol/L, the “Total plasma concentration that causes 10% decrease from baseline MAP” value [2, 4] was 0.3 ± 0.2 nmol/L and 0.3 nmol/L and the “Blood pressure 2 h postdosing” value [2, 5] was 100 ± 7 mmHg. The “Heart rate 2 h postdosing” value [2, 5] was 489 ± 41 bpm, the “Heart rate at dose 2” value ([2]; conscious rats, i.v. infusion 11 μg/kg per min for 15 min, baseline 381 ± 21) was 472 ± 33 bpm and the “Blood pressure at dose 3” value ([2]; conscious rats, i.v. infusion 67 μg/kg per min for 15 min, baseline 114 ± 9) was 98 ± 9 mmHg. The Core body temperature ([2]; highest dose (410 μg/kg per min i.v.)) was “significant reduction”, the EC50 ([2]; sigmoid Emax model, mean ± SD, read-out: EC50,MAP (plasma concentration that induces half the maximum MAP decrease)) was 0.52 ± 0.16 nM and the “Emax,MAP (maximum compound 2-induced decrease in MAP)” value ([2]; sigmoid Emax model, mean ± SD) was 37 ± 11. The “Emax,HR (maximum compound 2-induced increase in HR)” value ([2]; simple Emax model on mean data) was 158, the Emax (A2a; CHO-K1, 100% = 10 μmol/L NECA, average (SD), read-out: A2a human CHO-K1 cells Intrinsic activity) was 97.9% and the EC50 (A2a; cAMP generation, average (SD)) was 1.4 nM. For the same molecule, the “Selectivity for A2a over A1, A2b and A3” value (A2a; human adenosine receptors) was greater than 1000 fold and the logD at 10 min [3] was less than -1.
